Experimental data published in PubChem BioAssay AID1671353.

Molecular target: Serine/threonine-protein kinase pim-1 (Homo sapiens) (UniProt P11309)
Assay: PIM1 kinase inhibitors, dose response, biochemical, Z'-LYTE FRET, direct format, recombinant human (AID 1671353)
Settings: Z'-LYTE FRET peptide phosphorylation

IC50: 1.97 µM
SMILES: Brc1c(Br)c(Br)c2n[nH]nc2c1Br
